According to patent US8916550B2, “Compounds for modulating TRPV3 function” (Hydra Biosciences, Inc., priority 2005, dated 2014):
Where two headings read alike, the source gives them in different places.

Assays:
[1] = tested on: Male Holtzman rats, substance-P induced thermal hyperalgesia; experiment: Intrathecal substance-P induced thermal hyperalgesia; format: in vivo, rat; settings: 200 mg/kg IP, 30 minutes prior to substance-P; p<0.05 between groups
Experimental: The efficacy of a TRPV3 antagonist in diminishing hyperalgesia was assessed in a model of intrathecal administered substance-P induced thermal hyperalgesia. Male Holtzman rats were used in this study and thermal escape was measured using a Hargreaves apparatus. Thermal escape was measured pre-treatment (baseline), and at intervals following intrathecal administration of substance-P (tested at 15, 30, 45, and 60 minutes post substance-P administration). Control animals were administered vehicle intraperitoneally after baseline assessment and 30 minutes prior to substance P administration. Experimental animals receiving a TRPV3 inhibitor (compound 64) were administered compound intraperitoneally after baseline assessment and 30 minutes prior to substance P administration.
Substance-P induced rats were surgically prepared with a lumbar intrathecal catheter using clean surgical technique while under inhalation anesthesia (isoflurane). The catheter was externalized at the back of the head to minimize handling of the animal during drug delivery. […]
Briefly, baseline mean paw latencies were determined prior to substance-P administration. […] After injection of substance P intrathecally via the previously placed catheter (counted as time=0), measurements of escape latency were taken at 15, 30, 45, and 60 minutes post-substance-P administration. […]

TRPV1 (hTRPV1) = target: T1, TRPV1 (hTRPV1) (Homo sapiens, UniProt Q8NER1); experiment: Selectivity patch clamp, TRPV1 channel; format: cell-based; settings: fold selective for TRPV3 over TRPV1; tested up to 30 μM, IC50 estimated
T1 construct: expressed in transfected cells
T1 sequence (Q8NER1 whole entry): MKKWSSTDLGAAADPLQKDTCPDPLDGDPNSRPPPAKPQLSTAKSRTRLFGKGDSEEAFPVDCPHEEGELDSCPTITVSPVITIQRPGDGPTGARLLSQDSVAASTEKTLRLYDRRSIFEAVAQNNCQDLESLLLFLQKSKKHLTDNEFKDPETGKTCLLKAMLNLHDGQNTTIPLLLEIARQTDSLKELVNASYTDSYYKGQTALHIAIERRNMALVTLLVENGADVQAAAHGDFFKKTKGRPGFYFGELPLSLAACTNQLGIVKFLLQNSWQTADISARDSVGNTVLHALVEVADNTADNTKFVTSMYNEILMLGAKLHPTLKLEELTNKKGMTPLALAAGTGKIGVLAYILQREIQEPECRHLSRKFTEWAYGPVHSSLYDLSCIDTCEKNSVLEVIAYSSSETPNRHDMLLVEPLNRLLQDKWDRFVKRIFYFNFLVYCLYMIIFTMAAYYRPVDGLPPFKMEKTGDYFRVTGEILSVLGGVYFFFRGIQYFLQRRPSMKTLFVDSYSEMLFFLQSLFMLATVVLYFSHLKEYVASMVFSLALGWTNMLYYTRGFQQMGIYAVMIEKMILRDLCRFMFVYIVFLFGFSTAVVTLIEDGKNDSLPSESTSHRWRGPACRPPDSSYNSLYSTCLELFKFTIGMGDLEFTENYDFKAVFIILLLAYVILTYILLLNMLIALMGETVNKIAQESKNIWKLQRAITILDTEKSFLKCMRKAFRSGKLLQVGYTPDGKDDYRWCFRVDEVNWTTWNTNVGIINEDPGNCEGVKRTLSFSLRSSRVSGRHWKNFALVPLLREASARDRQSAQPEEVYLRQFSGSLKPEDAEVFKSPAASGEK
Excerpt: (§1) Data is presented as fold selective.

[2] = tested on: rats, CFA injected hindpaw; experiment: Complete Freund's Adjuvant (CFA) model of inflammatory pain, latency to withdrawal; format: in vivo, rat; settings: for Effect relative to diclofenac / TRPV1 inhibitor: highest dose tested, 200 mg/kg; for Thermal hyperalgesia (latency to withdrawal): intraperitoneal, tested 45 minutes later
Experimental: As outlined above, the Complete Freund's Adjuvant (CFA) model is a model of inflammatory pain. As such, it may be used to evaluate effectiveness in relieving pain caused by inflammation, for example, pain due to arthritis and other inflammatory conditions. FIG. 9 provides a schematic representation of the protocol used to evaluate a TRPV3 inhibitor in the CFA model.
Naive rats were pretested for sensitivity to a heat stimulus in the Hargreaves apparatus. The next day, 100 μL of complete Freund's adjuvant (CFA) was injected into the plantar surface of the right hindpaw. Two days later, in the morning, the rats were again pretested. In the afternoon, rats were injected with either vehicle control (methylcellulose or PEG-400) or with drug (TRPV3 inhibitor 64, TRPV3 inhibitor 15, TRPV1 inhibitor A-425619, or the non-steroidal anti-inflammatory diclofenac). Drugs or vehicle were injected intraperitoneally, and 45 minutes later rats were tested for hyperalgesia by applying the heat source to the CFA injected and uninjected hindpaw and measuring latency to withdrawal.

[3] = tested on: Male Holtzmann rats, intraplantar formalin; experiment: Formalin model following intrathecal delivery; format: in vivo, rat; settings: 10 mg/kg intrathecally
Excerpt: As outlined above, the formalin model involves injection of a formalin solution intradermally or intraperitoneally. Injection of formalin solution invokes a biphasic response, and thus provides a model for both nociceptive and inflammatory pain. The formalin model was used to evaluate the effectiveness of an exemplary TRPV3 inhibitor in the treatment of pain following intrathecal (IT) delivery. Efficacy following intrathecal delivery provides evidence that the compound can act centrally.
Briefly, the following protocol was followed. Male Holtzmann rats received intraplantar injections of 50 μL of 2% formalin. Paw flinching was detected by an automated sensor detecting movement of a small metal band placed on the injected hind paw. Drug or vehicle was administered intrathecally approximately 15 minutes prior to the injection of formalin. The animal's response to injection of the irritant was measured by counting flinches per minutes during the Early Phase and during the Late Phase.
Flinches per minute, a measure of the pain and discomfort experienced by the animal, was measured following formalin injection in animals receiving either 10 mg/kg TRPV3 inhibitor (Compound 64) or a vehicle control (0.5% DCC). The TRPV3 inhibitor was formulated in 20% DMSO/20% cremaphore/10% cyclodextrin (DCC) and administered intrathecally. […]

NaV1.2 = target: T2, NaV1.2 (Homo sapiens, UniProt Q99250); experiment: Selectivity patch clamp, NaV1.2 channel; format: cell-based; settings: fold selective for TRPV3 over NaV1.2; tested up to 30 μM, IC50 estimated
T2 construct: expressed in transfected cells
T2 sequence (Q99250 whole entry): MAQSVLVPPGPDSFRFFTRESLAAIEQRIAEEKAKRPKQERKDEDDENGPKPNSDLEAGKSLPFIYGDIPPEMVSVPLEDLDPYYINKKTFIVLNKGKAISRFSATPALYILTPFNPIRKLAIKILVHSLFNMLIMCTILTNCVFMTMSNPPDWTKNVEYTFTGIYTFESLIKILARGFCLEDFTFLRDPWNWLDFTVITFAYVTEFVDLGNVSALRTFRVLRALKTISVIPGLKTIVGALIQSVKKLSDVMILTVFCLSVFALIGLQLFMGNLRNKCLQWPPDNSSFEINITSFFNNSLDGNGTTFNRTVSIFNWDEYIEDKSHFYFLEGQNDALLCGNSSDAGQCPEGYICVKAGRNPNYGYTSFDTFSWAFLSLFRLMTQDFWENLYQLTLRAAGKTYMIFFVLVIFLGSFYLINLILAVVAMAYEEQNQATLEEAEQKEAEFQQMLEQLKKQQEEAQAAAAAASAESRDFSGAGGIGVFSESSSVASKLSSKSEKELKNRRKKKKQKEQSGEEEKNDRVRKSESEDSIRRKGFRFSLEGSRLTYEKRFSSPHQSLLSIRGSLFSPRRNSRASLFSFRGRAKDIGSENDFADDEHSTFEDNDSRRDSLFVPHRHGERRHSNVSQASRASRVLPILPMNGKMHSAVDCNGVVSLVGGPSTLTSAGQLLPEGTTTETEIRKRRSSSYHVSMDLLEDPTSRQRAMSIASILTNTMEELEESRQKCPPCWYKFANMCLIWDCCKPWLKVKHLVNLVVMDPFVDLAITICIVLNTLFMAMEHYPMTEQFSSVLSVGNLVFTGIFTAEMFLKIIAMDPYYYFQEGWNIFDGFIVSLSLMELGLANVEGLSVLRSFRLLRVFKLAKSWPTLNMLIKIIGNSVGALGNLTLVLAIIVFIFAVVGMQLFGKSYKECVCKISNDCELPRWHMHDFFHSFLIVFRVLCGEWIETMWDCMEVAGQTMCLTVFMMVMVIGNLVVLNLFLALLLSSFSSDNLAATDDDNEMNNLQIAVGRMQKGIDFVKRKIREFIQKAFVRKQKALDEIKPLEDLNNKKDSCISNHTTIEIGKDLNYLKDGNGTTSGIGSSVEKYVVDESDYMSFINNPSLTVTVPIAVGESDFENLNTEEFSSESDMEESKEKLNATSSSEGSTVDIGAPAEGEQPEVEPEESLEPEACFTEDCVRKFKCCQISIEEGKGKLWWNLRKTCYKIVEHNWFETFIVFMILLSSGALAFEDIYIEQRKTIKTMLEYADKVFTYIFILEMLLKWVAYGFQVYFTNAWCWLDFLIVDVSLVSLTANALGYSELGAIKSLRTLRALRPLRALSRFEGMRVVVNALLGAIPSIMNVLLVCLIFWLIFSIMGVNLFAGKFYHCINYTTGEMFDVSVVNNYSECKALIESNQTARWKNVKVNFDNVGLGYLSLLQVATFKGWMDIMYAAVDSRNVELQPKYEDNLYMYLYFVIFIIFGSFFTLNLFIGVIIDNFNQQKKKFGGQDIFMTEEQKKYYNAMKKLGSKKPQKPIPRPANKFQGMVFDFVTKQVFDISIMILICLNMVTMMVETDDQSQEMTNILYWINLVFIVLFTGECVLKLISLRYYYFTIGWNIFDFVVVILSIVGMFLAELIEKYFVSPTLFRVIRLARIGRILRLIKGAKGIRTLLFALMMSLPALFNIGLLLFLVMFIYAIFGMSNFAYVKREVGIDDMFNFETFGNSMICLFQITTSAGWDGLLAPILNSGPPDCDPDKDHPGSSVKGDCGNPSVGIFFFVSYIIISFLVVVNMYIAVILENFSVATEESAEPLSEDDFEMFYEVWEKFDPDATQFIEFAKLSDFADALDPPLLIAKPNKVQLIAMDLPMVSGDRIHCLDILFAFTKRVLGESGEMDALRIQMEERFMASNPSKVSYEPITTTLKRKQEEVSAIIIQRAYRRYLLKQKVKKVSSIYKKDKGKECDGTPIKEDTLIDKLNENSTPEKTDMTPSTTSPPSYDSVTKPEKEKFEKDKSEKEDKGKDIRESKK
Excerpt: as §1

[4] = tested on: Male Holtzman rats, thermal injury; experiment: Thermal injury model, thermal escape latency (Hargreaves); format: in vivo, rat
Experimental: The thermal injury model was used to evaluate the effectiveness of an exemplary TRPV3 inhibitor in the treatment of nociceptive pain. FIG. 1 provides a schematic representation of the protocol used to evaluate a TRPV3 inhibitor in the thermal injury model.
Briefly, the following protocol was followed. Male Holtzman rats (approximately 300 grams) were tested on thermal escape using a Hargreaves type apparatus. Under light anesthesia, a thermal injury (52° C. for 45 seconds) was applied to one heel. The animals were tested for thermal escape latency of the injured and uninjured paw before and at 30, 60, 80 and 120 minutes after injury. Drug (a TRPV3 inhibitor or morphine) or vehicle (0.5% methylcellulose) was administered after the baseline measurement and approximately 15-20 minutes prior to the thermal injury. In addition to the escape latency measurement, behavioral observations were made throughout the experiment.

rat TRPV6 (rTRPV6) [5] = target: T3, rat TRPV6 (rTRPV6) (Rattus norvegicus, UniProt Q9R186); experiment: Selectivity patch clamp, TRPV6 channel; format: cell-based; settings: fold selective for TRPV3 over TRPV6; tested up to 30 μM, IC50 estimated
T3 construct: expressed in transfected cells
T3 sequence (Q9R186 1-767): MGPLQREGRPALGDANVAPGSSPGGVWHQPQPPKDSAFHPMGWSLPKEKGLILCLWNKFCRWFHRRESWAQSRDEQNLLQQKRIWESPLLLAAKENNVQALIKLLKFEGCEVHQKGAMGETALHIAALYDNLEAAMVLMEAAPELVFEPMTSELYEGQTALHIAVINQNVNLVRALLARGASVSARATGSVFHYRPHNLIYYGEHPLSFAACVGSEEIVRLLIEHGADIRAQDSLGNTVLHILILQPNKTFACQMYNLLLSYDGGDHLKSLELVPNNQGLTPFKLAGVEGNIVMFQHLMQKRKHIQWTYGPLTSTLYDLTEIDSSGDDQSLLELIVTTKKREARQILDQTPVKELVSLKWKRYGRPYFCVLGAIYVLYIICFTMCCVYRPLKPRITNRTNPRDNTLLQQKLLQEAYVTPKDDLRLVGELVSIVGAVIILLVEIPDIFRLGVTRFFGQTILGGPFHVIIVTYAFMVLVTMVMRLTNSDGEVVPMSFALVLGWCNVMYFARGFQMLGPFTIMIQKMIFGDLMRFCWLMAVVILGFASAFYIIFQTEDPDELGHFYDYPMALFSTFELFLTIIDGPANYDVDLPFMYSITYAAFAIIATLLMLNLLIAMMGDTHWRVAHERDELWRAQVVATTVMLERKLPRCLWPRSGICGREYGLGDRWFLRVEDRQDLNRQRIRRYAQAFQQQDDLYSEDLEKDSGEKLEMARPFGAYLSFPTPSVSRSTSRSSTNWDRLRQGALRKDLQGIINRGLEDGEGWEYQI
Excerpt: as §1

human ERG (hERG) = human ERG (hERG) (Homo sapiens, UniProt Q12809); experiment: Selectivity patch clamp, hERG channel; settings: fold selective for TRPV3 over hERG; tested up to 30 μM, IC50 estimated
human ERG (hERG), sequence (Q12809 whole entry): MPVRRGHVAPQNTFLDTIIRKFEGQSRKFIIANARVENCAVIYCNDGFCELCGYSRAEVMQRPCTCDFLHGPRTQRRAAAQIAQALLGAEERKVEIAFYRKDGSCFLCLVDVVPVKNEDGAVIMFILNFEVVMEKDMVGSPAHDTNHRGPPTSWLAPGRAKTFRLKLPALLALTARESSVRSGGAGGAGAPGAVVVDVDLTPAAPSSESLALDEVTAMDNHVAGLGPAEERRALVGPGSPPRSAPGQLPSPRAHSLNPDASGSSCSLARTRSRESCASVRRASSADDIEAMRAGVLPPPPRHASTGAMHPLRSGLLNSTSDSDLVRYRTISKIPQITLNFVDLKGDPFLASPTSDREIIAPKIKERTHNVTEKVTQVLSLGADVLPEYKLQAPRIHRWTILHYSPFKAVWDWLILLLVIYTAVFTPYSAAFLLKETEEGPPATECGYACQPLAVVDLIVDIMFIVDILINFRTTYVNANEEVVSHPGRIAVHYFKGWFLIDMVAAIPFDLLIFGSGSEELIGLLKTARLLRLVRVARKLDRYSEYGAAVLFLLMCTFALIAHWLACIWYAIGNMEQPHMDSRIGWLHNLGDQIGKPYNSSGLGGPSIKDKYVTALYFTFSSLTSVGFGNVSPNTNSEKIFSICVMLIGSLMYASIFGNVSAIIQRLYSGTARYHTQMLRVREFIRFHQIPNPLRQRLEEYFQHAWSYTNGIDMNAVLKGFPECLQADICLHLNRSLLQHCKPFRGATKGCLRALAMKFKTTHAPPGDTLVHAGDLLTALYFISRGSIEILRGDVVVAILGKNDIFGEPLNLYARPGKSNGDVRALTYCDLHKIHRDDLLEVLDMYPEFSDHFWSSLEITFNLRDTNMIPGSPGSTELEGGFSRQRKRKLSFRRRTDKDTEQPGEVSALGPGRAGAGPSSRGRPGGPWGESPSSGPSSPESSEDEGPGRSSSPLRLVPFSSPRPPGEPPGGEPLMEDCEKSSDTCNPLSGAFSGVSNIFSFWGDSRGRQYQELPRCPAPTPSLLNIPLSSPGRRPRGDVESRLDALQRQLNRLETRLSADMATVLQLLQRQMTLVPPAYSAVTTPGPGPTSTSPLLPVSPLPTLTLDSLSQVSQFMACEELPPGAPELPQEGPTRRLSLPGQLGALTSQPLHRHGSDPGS
Experimental: Compounds of interest were tested against these channels at concentrations up to 30 μM, and the resulting data were used to estimate IC50. Data is presented as fold selective.

rat TRPV6 (rTRPV6) [6] = target: T3, rat TRPV6 (rTRPV6); settings: (Clapham et al.); cited from earlier work
[7] = Plasma levels by HPLC/MS/MS after administration; format: in vivo; settings: rat
Experimental: The plasma levels of TRPV3 inhibitor 15 were determined via HPLC/MS/MS following administration to male Sprague-Dawley rats. Rats were administered a single intravenous bolus dose of 1.2 mg/kg, an intraperitoneal dose of a suspension of 30 or 60 mg/kg, an oral dose of a solution of 8.6 mg/kg, or an oral dose of a suspension of 6.9 mg/kg.
For intravenous administration, TRPV3 inhibitor 15 solutions were formulated in Solutol at a target concentration of 0.25 mg/mL. The solution was administered as a rapid bolus (approximately 2-3 seconds) via the tail vein of conscious rats or via jugular vein catheter in anesthetized rats. The solution was administered at a dose volume of 4 mL/kg.
For intraperitoneal administration, TRPV3 inhibitor 15 was formulated as a uniform suspension in CMC (carboxymethylcellulose) at a target concentration of 5 mg/mL. The suspension was administered at a dose volume of 10 mL/kg.
For oral administration, TRPV3 inhibitor 15 was formulated as either a uniform suspension in CMC or as a solution in Solutol. The target concentration was 1 mg/mL. Oral administration was by gavage at a dose volume of 10 mL/kg to conscious, fasted, male Sprague-Dawley rats.

[8] = tested on: rats, CFA injected hindpaw; settings: Table B comparators; based on our data as well as data available in the literature; cited from earlier work
[9] = tested on: Male Holtzman rats, thermal injury; settings: Table B comparators; based on our data as well as data available in the literature; cited from earlier work

SMILES: O=C(CSc1nc2ccccc2s1)N1CCCc2ccccc21 [Compound 64, 2-(Benzo[d]thiazol-2-ylthio)-1-(3,4-dihydroquinolin-1(2H)-yl)ethanone]
- Thermal hyperalgesia (mean paw latency) [1]: reversed the hyperalgesia
- TRPV3:TRPV1 fold selectivity (TRPV1 (hTRPV1)): >40 fold
- Effect relative to diclofenac / TRPV1 inhibitor [2]: more potent than the effects of either the non-steroidal anti-inflammatory or the TRPV1 inhibitor
- Pain sensitivity of inflamed paw ([2]; individual rats, FIG. 11): returns pain sensitivity to baseline levels
- Thermal hyperalgesia (latency to withdrawal) [2]: reduced thermal hyperalgesia
- Flinches per minute ([3]; about 15 minutes prior to formalin, vs vehicle): substantially reduced the flinches per minute
- Flinches per minute, Late Phase ([3]; Late Phase): statistically significant reduction
- TRPV3:NaV1.2 fold selectivity (NaV1.2): >40 fold
- Escape latency in the injured paw ([4]; 200 mg/kg): comparable to that observed prior to injury
- Escape latency in the uninjured paw ([4]; even at the highest concentrations administered (FIG. 3)): no effect on the uninjured paw
- Escape latency in the injured paw ([4]; increasing concentrations of inhibitor vs methylcellulose control (FIG. 2)): significantly diminished pain
- TRPV3:TRPV6 fold selectivity (rat TRPV6 (rTRPV6) [5]): >40 fold

SMILES: N.N.N.N.N.N.N.N.N.N.N.N.N.N.[Cl-].[Cl-].[Cl-].[Cl-].[Cl-].[Cl-].[O-2].[O-2].[Ru+3].[Ru+3].[Ru+4] [Ruthenium Red]
- TRPV3:TRPV1 fold selectivity (TRPV1 (hTRPV1)): 3 fold selective
- TRPV3:hERG fold selectivity (human ERG (hERG)): >40 fold
- TRPV3:TRPV6 fold selectivity (rat TRPV6 (rTRPV6) [6]): 10 fold

SMILES: Cc1cccc2c1N(C(=O)CSc1nc3cc(Cl)ccc3s1)CCC2 [Compound 15, 2-(5-Chlorobenzothiazol-2-ylsulfanyl)-1-(8-methyl-3,4-dihydro-2H-quinolin-1-yl)-ethanone]
- TRPV3:TRPV1 fold selectivity (TRPV1 (hTRPV1)): >1000 fold
- Effect relative to diclofenac / TRPV1 inhibitor [2]: more potent than the effects of the non-steroidal anti-inflammatory
- Thermal hyperalgesia (latency to withdrawal) [2]: reduced thermal hyperalgesia
- TRPV3:NaV1.2 fold selectivity (NaV1.2): >1000 fold
- bioavailability ([7]; male, Sprague-Dawley, fasted rats, oral, solution or suspension, read-out: Estimated bioavailability): ~5%
- half-life ([7]; male Sprague-Dawley rats, read-out: Estimated half-life (converted)): 1.6 h
- clearance ([7]; male Sprague-Dawley rats, read-out: Estimated plasma clearance): 41 mL/min/kg
- Vd ([7]; male Sprague-Dawley rats, read-out: Estimated volume of distribution): 5.51 L/kg
- TRPV3:TRPV6 fold selectivity (rat TRPV6 (rTRPV6) [5]): >1000 fold

SMILES: Cc1cccc2c1N(C(=O)CSc1nc3ccccc3s1)CCC2 [Compound 46, 2-(Benzothiazol-2-ylsulfanyl)-1-(8-methyl-3,4-dihydro-2H-quinolin-1-yl)-ethanone]
- TRPV3:TRPV1 fold selectivity (TRPV1 (hTRPV1)): >200 fold

SMILES: NCC1(CC(=O)O)CCCCC1 [Gabapentin]
- CFA Model [8]: Ineffective
- Acute thermal injury [9]: Effective
